{"source": "patent US9259426B2", "about": "“4,6-di- and 2,4,6-trisubstituted quinazoline derivatives useful for treating viral infections” (Gilead Sciences, Inc., priority 2006, dated 2016)", "key": {"[1]": {"test_system": "HCV replicon in human hepatoma Huh-7 cell line", "test": "Anti-HCV replicon assay (EC50, luciferase readout)", "format": "cell-based", "settings": "Hepatitis C virus, Huh-7, 72 h, read-out: EC50 (50% effective concentration)", "protocol": "(§1) The anti HCV activity of the quinazoline derivatives of this invention was tested in a human hepatoma Huh-7 cell line harbouring a HCV replicon. The assay comprised the following steps:\n(§2) Step 1: compound preparation and serial dilution\n(§3) • 1. for water soluble quinazoline derivatives, a volume of 500 μL of solution in cell media (DMEM, 10% FBS, P/S, L-Glutamine) was prepared with a concentration being twice the concentration of the starting final serial dilution concentration. A volume of 150 μL of the solution was added to the pre-specified wells in column 1 of a 96-well cell culture plate (PerkinElmer, white plate, cat. #6005181, for EC50 assay; black plate, cat. #6005182 for CC50 assay). The rest of the plate, columns 2-12, was filled with 100 μL of cell media. The plate was then placed on a Precision 2000 Workstation to start the serial dilution. Compounds were diluted three times each step from column 1 to column 10. Column 11 was used as a blank control (no compound added). • 2. for quinazoline derivatives requiring DMSO to dissolve, serial dilution is performed in 50% DMSO in a 384-well plate. A solution containing a compound at 100-fold concentration of the starting final serial dilution concentration was prepared in 50% DMSO and added to the pre-specified wells in column 1 of a polypropylene 384-well plate. The plate was then placed on a Precision 2000 Workstation to start the serial dilution. After the serial dilution, a volume of 2 μL of the solution was transferred from the 384-well plate to a 96-well cell culture plate containing 100 μL of cell media on a Biomek FX Workstation. The DMSO concentration in the final assay condition was 0.5% after cells are added to the plate and the total volume in each well is brought to 200 μL. Step 2: to each well of the serial dilution plate prepared above, 100 μL of cell media containing 6000 suspended Huh-7 HCV replicon cells was added with a Multidrop workstation. The plates were incubated for 3 days at 37° C. with 5% CO2. Step 3: Detection: • a) for the EC50 assay, the media in a 96-well cell culture plate was aspirated with a Biotek EL405 plate-washer. A volume of 200 μL of a solution containing a 1:1 mixture of cell-lysis buffer (Promega, Luciferase Cell Culture Lysis 5× Reagent, cat. #E1531) and luciferase substrate solution (Promega, Luciferase Assay, cat.# E4550) was added to each well of the plate with Multidrop. The plate was incubated for 30 minutes at room temperature before the luminescence signal was measured with a TopCount plate-reader. • b) for the CC50 assay, a volume of 100 μL of pre-mixed CeliTiter-Glo (Promega, cat.# G7572) solution is added directly to the cell culture in each well of the plate and the luminescence signal is measured with a TopCount plate-reader after 10 minutes of incubation at room temperature.\n(§4) Results in the table below are expressed by the following data: • the 50% cytostatic concentration (CC50), i.e. the concentration that results in 50% inhibition of cell growth, and • the 50% effective concentration (EC50), i.e. the concentration that protects 50% of the cell monolayer from virus-induced cytopathic effect."}, "[2]": {"test": "CC50 assay (CellTiter-Glo) in Huh-7 HCV replicon cells", "format": "cell-based, human", "settings": "human, 3 days incubation, CellTiter-Glo luminescence, read-out: CC50 (50% cytostatic concentration)", "protocol": "as §1, §2, §3, §4"}, "Huh-7 HCV replicon cells": {"test_system": "Huh-7 HCV replicon cells", "test": "CC50 assay (CellTiter-Glo) in Huh-7 HCV replicon cells", "format": "cell-based, human", "settings": "3 days incubation, CellTiter-Glo luminescence, read-out: CC50 (50% cytostatic concentration)", "protocol": "as §1, §2, §3, §4"}}, "data": [{"smiles": "COc1ccc(-c2ccc3nc(N)nc(N4CCOCC4)c3c2)cc1OC", "note": "[Example 14, 2-amino-6-(3,4-dimethoxyphenyl)-4-(N-morpholino)quinazoline]", "values": [{"measurement": "EC50", "setting": "[1]", "value": "< 0.3", "unit": "µM"}, {"measurement": "CC50 at 3 days", "setting": "[2]", "value": "< 10", "unit": "µM"}]}, {"smiles": "COc1ccc(-c2ccc3nc(N)nc(Nc4cccc(Br)c4)c3c2)cc1OC", "note": "[Example 16, 2-amino-6-(3,4-dimethoxyphenyl)-4-[N-(3-bromo)-anilino]-quinazoline]", "values": [{"measurement": "EC50", "setting": "[1]", "value": "< 0.3", "unit": "µM"}, {"measurement": "CC50 at 3 days", "setting": "[2]", "value": "> 20", "unit": "µM"}]}, {"smiles": "Nc1nc(N2CCOCC2)c2cc(-c3ccc(Cl)cc3)ccc2n1", "note": "[Example 27, 2-amino-6-(4-chlorophenyl)-4-(N-morpholino)-quinazoline]", "values": [{"measurement": "EC50", "setting": "[1]", "value": "0.3 to 1", "unit": "µM"}, {"measurement": "CC50 at 3 days", "setting": "[2]", "value": "10 to 20", "unit": "µM"}]}, {"smiles": "Nc1nc(N2CCOCC2)c2cc(-c3ccc(F)cc3)ccc2n1", "note": "[Example 28, 2-amino-6-(4-fluorophenyl)-4-(N-morpholino)-quinazoline]", "values": [{"measurement": "EC50", "setting": "[1]", "value": "0.3 to 1", "unit": "µM"}, {"measurement": "CC50 at 3 days", "setting": "[2]", "value": "< 10", "unit": "µM"}]}, {"smiles": "CC(=O)Nc1ccc(-c2ccc3nc(N)nc(N4CCOCC4)c3c2)cc1", "note": "[Example 30, 2-amino-6-(4-acetamidophenyl)-4-(N-morpholino)quinazoline]", "values": [{"measurement": "EC50", "setting": "[1]", "value": "1 to 10", "unit": "µM"}, {"measurement": "CC50 at 3 days", "setting": "[2]", "value": "10 to 20", "unit": "µM"}]}, {"smiles": "CC(=O)Nc1ccc(-c2ccc3nc(N)nc(N4CCCCC4)c3c2)cc1", "note": "[Example 31, 2-amino-6-(4-acetamidophenyl)-4-(N-piperidino)quinazoline]", "values": [{"measurement": "EC50", "setting": "[1]", "value": "1 to 10", "unit": "µM"}, {"measurement": "CC50 at 3 days", "setting": "[2]", "value": "10 to 20", "unit": "µM"}]}, {"smiles": "CC(=O)Nc1ccc(-c2ccc3nc(N)nc(N4CCN(C(C)=O)CC4)c3c2)cc1", "note": "[Example 32, 2-amino-6-(4-acetamidophenyl)-4-(N-acetylpiperazino)quinazoline]", "values": [{"measurement": "EC50", "setting": "[1]", "value": "1 to 10", "unit": "µM"}, {"measurement": "CC50 at 3 days", "setting": "[2]", "value": "> 20", "unit": "µM"}]}, {"smiles": "CC(=O)Nc1ccc(-c2ccc3nc(N)nc(N4CCN(C)CC4)c3c2)cc1", "note": "[Example 34, 2-amino-6-(4-acetamidophenyl)-4-(N-methylpiperazino)quinazoline]", "values": [{"measurement": "EC50", "setting": "[1]", "value": "1 to 10", "unit": "µM"}, {"measurement": "CC50 at 3 days", "setting": "[2]", "value": "10 to 20", "unit": "µM"}]}, {"smiles": "Fc1ccc(-c2ccc3ncnc(N4CCOCC4)c3c2)cc1", "note": "[Example 37, 6-(4-fluorophenyl)-4-(N-morpholino)-quinazoline]", "values": [{"measurement": "EC50", "setting": "[1]", "value": "1 to 10", "unit": "µM"}, {"measurement": "CC50 at 3 days", "setting": "[2]", "value": "> 20", "unit": "µM"}]}, {"smiles": "Nc1ncnc2ccc(-c3ccc(F)cc3)cc12", "note": "[Example 39, 4-amino-6-(4-fluorophenyl)-quinazoline]", "values": [{"measurement": "EC50", "setting": "[1]", "value": "1 to 10", "unit": "µM"}, {"measurement": "CC50 at 3 days", "setting": "[2]", "value": "> 20", "unit": "µM"}]}, {"smiles": "CCCNc1ncnc2ccc(-c3ccc(F)cc3)cc12", "note": "[Example 43, 4-(N-propylamino)-6-(4-fluorophenyl)-quinazoline]", "values": [{"measurement": "EC50", "setting": "[1]", "value": "1 to 10", "unit": "µM"}, {"measurement": "CC50 at 3 days", "setting": "[2]", "value": "> 20", "unit": "µM"}]}, {"smiles": "CN(C)c1ncnc2ccc(-c3ccc(F)cc3)cc12", "note": "[Example 45, 4-(N,N-dimethylamino)-6-(4-fluorophenyl)-quinazoline]", "values": [{"measurement": "EC50", "setting": "[1]", "value": "1 to 10", "unit": "µM"}, {"measurement": "CC50 at 3 days", "setting": "[2]", "value": "> 20", "unit": "µM"}]}, {"smiles": "Fc1ccc(-c2ccc3ncnc(NC4CC4)c3c2)cc1", "note": "[Example 47, 4-(N-cyclopropylamino)-6-(4-fluorophenyl)-quinazoline]", "values": [{"measurement": "EC50", "setting": "[1]", "value": "1 to 10", "unit": "µM"}, {"measurement": "CC50 at 3 days", "setting": "[2]", "value": "> 20", "unit": "µM"}]}, {"smiles": "Nc1nc(Nc2ccccc2)c2cc(-c3ccc(F)cc3)ccc2n1", "note": "[Example 48, 2-amino-6-(4-fluorophenyl)-4-(N-anilino)-quinazoline]", "values": [{"measurement": "EC50", "setting": "[1]", "value": "0.3 to 1", "unit": "µM"}, {"measurement": "CC50 at 3 days", "setting": "[2]", "value": "< 10", "unit": "µM"}]}, {"smiles": "NS(=O)(=O)c1ccc(CNc2nc(NCC(F)(F)F)c3cc(-c4ccc(C(=O)NC5CC5)cc4)ccc3n2)cc1", "note": "[Example 51, N-Cyclopropyl-4-[2-(4-sulfamoyl-benzylamino)-4-(2,2,2-trifluoroethylamino)-quinazolin-6-yl]-benzamide]", "values": [{"measurement": "EC50", "setting": "[1]", "value": "< 0.3", "unit": "µM"}, {"measurement": "CC50 at 3 days", "setting": "[2]", "value": "> 20", "unit": "µM"}]}, {"smiles": "NS(=O)(=O)c1ccc(CNc2nc(NCC(F)(F)F)c3cc(-c4ccc(F)cc4)ccc3n2)cc1", "note": "[Example 52, 4-{[6-(4-Fluoro-phenyl)-4-(2,2,2-trifluoro-ethylamino)quinazolin-2-ylamino]-methyl}-benzenesulfonamide]", "values": [{"measurement": "EC50", "setting": "[1]", "value": "< 0.3", "unit": "µM"}, {"measurement": "CC50 at 3 days", "setting": "[2]", "value": "< 10", "unit": "µM"}]}, {"smiles": "Cn1ccc(Nc2nc(NC3CC3)c3cc(-c4ccc(F)cc4)ccc3n2)n1", "note": "[Example 54, N4-cyclopropyl-6-(4-fluoro-phenyl)-N2-(1-methyl-1H-pyrazol-3-yl)-quinazoline-2,4-diamine]", "values": [{"measurement": "EC50", "setting": "[1]", "value": "< 0.3", "unit": "µM"}, {"measurement": "CC50 at 3 days", "setting": "[2]", "value": "< 10", "unit": "µM"}]}, {"smiles": "COCCNc1nc(N)nc2ccc(-c3ccc(C(=O)NC4CC4)cc3)cc12", "note": "[Example 56, 4-[2-Amino-4-(2-methoxy-ethylamino)-quinazolin-6-yl]-N cyclopropyl-benzamide]", "values": [{"measurement": "CC50", "setting": "Huh-7 HCV replicon cells", "value": "> 20", "unit": "µM"}]}]}
